Experimental data reported in patent US20250034171A1, “IMIDAZOPYRIDINE AMIDES AND RELATED COMPOUNDS FOR USE IN THE TREATMENT OF BACTERIAL INFECTIONS” (priority 2021, published 2025).
In brackets after ≈: the same amount, converted by molar mass. Like-named read-outs stand apart in the source and are kept apart here.

Key:
[1] = test system: Salmonella typhimurium Ames II Mixed Strains (TA7001-TA7006) and TA98; experiment: Genotoxicity assay (AmesIIb mutagenicity test); type: cell-based; note: key: an AmesIIb score of 1 shows no genotoxicity signals
Source text: The aim is to evaluate compounds (and/or their metabolites) for their ability to induce reverse mutations in a gene of histidine-requiring Salmonella typhimurium strains to produce histidine-independent strains of these bacteria, in the absence and in the presence of a mammalian metabolic activation system.
Point mutations were made in the histidine (His) operon in Salmonella typhimurium, rendering the bacteria incapable of producing histidine. These single base substitutions are positioned at strategic points within the His gene, resulting in his-organisms that cannot grow unless histidine is supplied. When a mutagenic event occurs, base substitutions within the His gene then cause the reversion of the his-Ames II™ strains to His.
A chemical's mutagenic potential is assessed by exposing these his-organisms to varying concentrations of chemical and selecting for the reversion event. Medium lacking histidine is used for this selection which allows only those cells that have undergone the his- to His reversion to survive and grow.
The assay may be performed using a kit and instructions from Xenometric. The two strains provided in the Xenometric kit are the Ames II™ Mixed Strains and TA98. The Ames II™ Mixed Strains contains an equimolar mixture of the Ames II™ TA7001-TA7006 strains. Individually, these strains are designed to revert by only one specific base-pair substitution out of six possible changes. Thus, when mixed, all six base substitution mutations can be represented in one culture. This kit also contains TA98 for the detection of frameshift mutations.

[2] = test system: Mycobacterium tuberculosis strain H37Rv; experiment: Test 2: MIC determination against M. tuberculosis, resazurin fluorescence; type: cell-based; settings: Test 2, M. tuberculosis H37Rv; for MIC90: read-out: Bacterial activity MIC90
[3] = HTChem stab assay (chemical stability in buffer pH2, pH4 and pH7 vs DMSO reference); type: physicochemical
Description: HTChem stab assay was used to assess the chemical stability of the compounds. 72 h stirring at rt in a buffer pH2, pH4 and pH7 vs a reference DMSO solution. HTChem stab assay is based on the handbook of Pharmaceutical Stress Testing, Predicting Drug Degradation, second edition, authors Baertschi, Alsante, Reed ISBN 978-143980179-6.
Compounds were plated (1 μl 10 mM DMSO stock in 96 well plate (DMSO control+3 pH conditions), one plate per condition).
200 μL of respectively DMSO, Buffer/DMSO mix pH2, Buffer/DMSO mix pH4 and Buffer/DMSO mix pH7 was added.
After 72 h shaking (300 rpm) at room temperature the samples were analysed by LC/UV/MS. Chromatograms of samples (stability conditions) were compared with the chromatograms of control sample (DMSO). Extra peaks were flagged and identified by mass spectrometry. Sample purity (reference included) were reported.
• pH3 buffer: For 11; weigh 4.14 g NaH2PO4·H2O, add 600 ml H2O, add H3PO4 to pH3, add H2O to 1000 ml. Filter over 0.2 μm and store at 4° C. Expires after 30 days. • pH6 buffer: For 1 l; weigh 4.14 g NaH2PO4·H2O, add 600 ml H2O, add 1N NaOH to pH6, add H2O to 1000 ml. Filter over […] and store at 4° C. Expires after 30 days.
• pH2 Buffer/DMSO (StabSolvent): mix 2 parts of HCl 0.1N with 1 part of DMSO • pH4 Buffer/DMSO (StabSolvent): mix 2 parts of buffer pH3 with 1 part of DMSO • pH7 Buffer/DMSO (StabSolvent): mix 2 parts of buffer pH6 with 1 part of DMSO measure pH prior to use.
Instrument: Acquity UPLC; Column: Acquity HSS T3, 50 mm length×2.1 mm i.d., 1.8 μm particle size. Detectors: PDA (250-350 nm) and SQD2 (90-1500m/z). Mobile phase A: 0.1% Formic acid in water; Mobile phase B: 0.1% Formic acid in Acetonitrile.
Injection volume: 5 μL, flow rate 0.6 mL/min.
Data processing including peak integration and identification was done with Waters OpenLynx software.

[4] = Metabolic stability in liver microsomes (intrinsic clearance); type: in vitro ADME
Outline: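 Compound (typically 1 μM) incubated at 37° C with liver microsomes (0.5 mg/ml protein) of selected species, 1 mM NADPH, 1 mM MgCl2, 0.1 M phosphate pH 7.4, sampled 0–60 min. Parent remaining measured by LC-MS/MS; t1/2 from log-linear slope, then Clint in μl/min/mg protein.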

[5] = buffer pH2/DMSO, 72 h stirring at rt
[6] = buffer pH4/DMSO, 72 h stirring at rt
[7] = buffer pH7/DMSO, 72 h stirring at rt
[8] = reference DMSO solution, 72 h stirring at rt

Row | SMILES | GeneTox AmesIIb Score [1] | Bacterial activity pMIC50 [2] | MIC90 [2] | Chemical stability data, Buffer pH2 [3, 5] | Chemical stability data, Buffer pH4 [3, 6] | Chemical stability data, Buffer pH7 [3, 7] | Chemical stability data, Vehicle DMSO [3, 8] | Metabolic Stability (liver microsome intrinsic clearance) Clearance (mouse, μl/min./mg protein) ([4]; mouse liver microsomes) | Metabolic Stability Half life (mouse, min.) ([4]; mouse liver microsomes) | GeneTox AmesIIb Score ([1]; Salmonella typhimurium) | Chemical stability data, Vehicle DMSO ([3]; 72 h, 50 µM) | Chemical stability data, Buffer pH2 ([3]; 72 h, 50 µM, pH 2) | Chemical stability data, Buffer pH4 ([3]; 72 h, 50 µM, pH 4) | Chemical stability data, Buffer pH7 ([3]; 72 h, 50 µM, pH 7) | also measured
1 | CCc1nc2n(c1C(=O)NCc1ccc(-c3nc4n(n3)CCC(C(F)(F)F)C4)cc1)CCCC2 (racemic) [Compound 13ab] | 1 | 8.067 | 0.024 µM (≈ 0.0113 µg/mL) | 100% | 100% | 100% | 100% | 15.5 μl/min./mg protein | 1.49 h |  |  |  |  |  | 
2 | O=C(NCc1ccc(-c2nc3n(n2)CCC(C(F)(F)F)C3)cc1)c1c(C(F)F)nc2ccccn12 (racemic) [Compound 14ab] | 1 | 7.877 | 0.036 µM (≈ 0.0177 µg/mL) | 100% | 100% | 100% | 100% | <7.7 μl/min./mg protein | >3 h |  |  |  |  |  | 
3 | CCc1nc2ncccn2c1C(=O)NCc1ccc(-c2nc3n(n2)CCC(C(F)(F)F)C3)cc1 (racemic) [Compound 17ab] | 1 | 7.526 | 0.105 µM (≈ 0.0493 µg/mL) | 100% | 97% | 100% | 100% | <7.7 μl/min./mg protein | >3 h |  |  |  |  |  | 
4 | O=C(NCc1ccc(-c2cn3c(n2)CC(C(F)(F)F)CC3)cc1)c1c(C(F)(F)F)nc2ccccn12 (racemic) [Compound 18ab] | 1 | 7.431 | 0.142 µM (≈ 0.0721 µg/mL) | 98% | 100% | 100% | 98% | 11.1 μl/min./mg protein | 2.08 h |  |  |  |  |  | 
5 | CCc1nc2ncc(C)cn2c1C(=O)NCc1ccc(-c2cn3c(n2)CC(C(F)(F)F)CC3)cc1 (single isomer, unassigned) [Compound 3a] |  | 8.532 | 0.008 µM (≈ 0.00386 µg/mL) |  |  |  |  | 7.78 μl/min./mg protein |  | 1 | 100% | 100% | 100% | 100% | Metabolic Stability (liver microsome intrinsic clearance) Clearance (human, μl/min./mg protein) ([4]; human liver microsomes): 13.4 μl/min./mg protein; Metabolic Stability Half life (human, min.) ([4]; human, microsomes, 1 µM, pH 7.4): 1.72 h; Metabolic Stability Half life (mouse, min.) ([4]; mouse, microsomes, 1 µM, pH 7.4): 2.97 h
6 | CCc1nc2nc(C)ccn2c1C(=O)NCc1ccc(-c2nc3n(n2)CCC(C(F)(F)F)C3)cc1 (single isomer, unassigned) [Compound 5a] |  |  |  |  |  |  |  |  |  | 1 | 100% | 100% | 100% | 100% | MIC90 ([2]; Mycobacterium tuberculosis, H37RV): 0.06 µM (≈ 0.029 µg/mL); IC50 ([2]; Mycobacterium tuberculosis, H37RV, read-out: Bacterial activity pMIC50 (converted)): 21600 pM; half-life at 1 µM ([4]; mouse, microsomes, pH 7.4, Metabolic Stability Half life (mouse, min.)): > 3 h; microsomal CLint at 1 µM ([4]; mouse, microsomes, pH 7.4, mouse liver microsomes, read-out: Metabolic Stability (liver microsome intrinsic clearance) Clearance (mouse, μl/min./mg protein)): < 7.7 µL/min/mg
